Measured values published in ChEMBL document CHEMBL3091352, “Synthesis and pharmacological evaluation of novel bisindolylalkanes analogues” (Bioorg Med Chem, 2013).

Organism: Homo sapiens
Assay: Inhibition of human DNA topoisomerase-2 at 100 uM after 30 mins by agarose gel electrophoresis

inhibition: 90.3%
Compound: COc1cc([C@@H]2c3cc4c(cc3[C@@H](O[C@@H]3O[C@@H]5CO[C@@H](C)O[C@H]5[C@H](O)[C@H]3O)[C@H]3COC(=O)[C@H]23)OCO4)cc(OC)c1O
